From patent US10155767B2, “Therapeutic agent of acute myeloid leukemia containing 1,3,7-trisubstituted 3,4-dihydropyrimido[4,5-D]pyrimidine-2(1H)-one derivatives” (KOREA INSTITUTE OF SCIENCE AND TECHNOLOGY, priority 2016, dated 2018) come the findings set out here.

One test relates to OCI-AML3 (N-RasQ61L). In words: Proliferation inhibitory activity, OCI-AML3 cell line. The class given is cell-based. Conditions: Homo sapiens, OCI-AML-3; OCI-AML3 (mt-NRAS) cell line; read-out: Proliferation inhibitory ability (GI50, μM) OCI-AML3 (N-RasQ61L). As for the experimental part: (§1) With respect to each of the compounds synthesized in Synthesis Examples, GI50 values were calculated by measuring proliferation inhibitory abilities for mt-NRAS (G12D) Ba/F3, U937 (wt-NRAS), and OCI-AML3 (mt-NRAS) cell lines.

The subject of the next test is U937 (N-Ras WT). In words: Proliferation inhibitory activity, U937 cell line. The settings on record: Homo sapiens, U-937; U937 (wt-NRAS) cell line; read-out: Proliferation inhibitory ability (GI50, μM) U937 (N-Ras WT). Format: cell-based. As to the method: as §1
For a further test, the system named is Ba/F3 (N-Ras G12D). The test is described as follows: Proliferation inhibitory activity, mt-NRAS (G12D) Ba/F3 cell line. Conditions: Mus musculus, BaF3, read-out: Proliferation inhibitory ability (GI50, μM) Ba/F3 (N-Ras G12D). The class given is cell-based. As to the method:
as §1

In the next test the target is T1, GCK (Homo sapiens, UniProt Q12851).
T1 sequence (Q12851 1-820): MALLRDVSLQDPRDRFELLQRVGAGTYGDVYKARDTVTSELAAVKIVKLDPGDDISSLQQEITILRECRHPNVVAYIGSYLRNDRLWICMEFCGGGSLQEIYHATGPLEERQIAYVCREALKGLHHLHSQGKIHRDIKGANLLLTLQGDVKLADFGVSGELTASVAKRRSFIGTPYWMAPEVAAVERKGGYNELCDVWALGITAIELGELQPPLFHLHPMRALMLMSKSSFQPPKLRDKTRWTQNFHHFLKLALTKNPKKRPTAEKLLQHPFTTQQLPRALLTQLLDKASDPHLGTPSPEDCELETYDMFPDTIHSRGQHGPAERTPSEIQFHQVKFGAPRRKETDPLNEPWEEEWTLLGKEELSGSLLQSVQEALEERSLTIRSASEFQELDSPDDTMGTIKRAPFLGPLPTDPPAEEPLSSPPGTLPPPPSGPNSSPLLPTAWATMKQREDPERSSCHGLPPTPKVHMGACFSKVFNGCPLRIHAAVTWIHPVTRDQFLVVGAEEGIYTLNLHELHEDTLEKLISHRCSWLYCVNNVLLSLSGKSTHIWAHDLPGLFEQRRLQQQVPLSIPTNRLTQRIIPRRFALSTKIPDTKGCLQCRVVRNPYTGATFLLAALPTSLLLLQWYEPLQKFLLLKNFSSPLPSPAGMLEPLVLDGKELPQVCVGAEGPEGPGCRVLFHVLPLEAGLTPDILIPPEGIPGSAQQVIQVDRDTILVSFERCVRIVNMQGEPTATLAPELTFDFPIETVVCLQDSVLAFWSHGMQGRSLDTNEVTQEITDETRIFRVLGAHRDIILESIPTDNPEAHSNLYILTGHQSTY
In words: Kinase inhibitory activity, GCK. The class given is biochemical. As for the experimental part: (§2) With respect to the compounds of the present invention, IC50 values were calculated by measuring inhibitory ability for two kinases of GCK and ACK1.

The target in the next test is ACK1 (Homo sapiens, UniProt Q07912). In words: Kinase inhibitory activity, ACK1. Format: biochemical. As for the experimental part:
as §2

The structures appear in SMILES notation. pIC50: −log10 of the molar value.

Sequence of ACK1 (Q07912 whole entry): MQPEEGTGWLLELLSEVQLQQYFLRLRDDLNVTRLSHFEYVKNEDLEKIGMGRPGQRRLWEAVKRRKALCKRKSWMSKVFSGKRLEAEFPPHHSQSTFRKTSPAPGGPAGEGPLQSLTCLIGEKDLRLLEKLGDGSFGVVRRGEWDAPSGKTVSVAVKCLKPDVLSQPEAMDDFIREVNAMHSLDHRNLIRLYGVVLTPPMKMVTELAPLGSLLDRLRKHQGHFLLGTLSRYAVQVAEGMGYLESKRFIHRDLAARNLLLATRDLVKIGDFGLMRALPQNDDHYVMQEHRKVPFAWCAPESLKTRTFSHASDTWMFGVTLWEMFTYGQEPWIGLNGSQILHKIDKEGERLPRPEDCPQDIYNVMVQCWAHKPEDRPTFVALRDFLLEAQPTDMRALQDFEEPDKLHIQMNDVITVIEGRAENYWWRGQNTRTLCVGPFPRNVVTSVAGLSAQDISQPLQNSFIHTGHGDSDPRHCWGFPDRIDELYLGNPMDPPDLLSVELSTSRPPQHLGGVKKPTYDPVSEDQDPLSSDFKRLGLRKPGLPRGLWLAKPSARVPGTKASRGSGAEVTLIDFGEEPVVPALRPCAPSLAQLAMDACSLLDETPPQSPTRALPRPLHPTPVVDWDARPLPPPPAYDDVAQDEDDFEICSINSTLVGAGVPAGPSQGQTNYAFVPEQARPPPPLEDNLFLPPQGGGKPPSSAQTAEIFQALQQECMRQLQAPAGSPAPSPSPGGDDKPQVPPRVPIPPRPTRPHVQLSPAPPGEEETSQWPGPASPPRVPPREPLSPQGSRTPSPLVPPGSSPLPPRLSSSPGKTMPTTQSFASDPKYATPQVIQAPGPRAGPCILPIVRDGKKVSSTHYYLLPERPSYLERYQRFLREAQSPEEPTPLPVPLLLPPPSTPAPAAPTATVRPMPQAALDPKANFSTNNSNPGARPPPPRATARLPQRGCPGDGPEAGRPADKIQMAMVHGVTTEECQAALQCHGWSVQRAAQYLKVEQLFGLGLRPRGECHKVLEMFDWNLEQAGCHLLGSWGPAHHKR

Take `Cc1ccc(NC(=O)c2cccc(C(F)(F)F)c2)cc1N1Cc2cnc(Nc3ccccc3)nc2N(C)C1=O` [Compound 4, N-(4-methyl-3-(1-methyl-2-oxo-7-(phenylamino)-1,4-dihydropyrimido[4,5-d]pyrimidin-3(2H)-yl)phenyl)-3-(trifluoromethyl)benzamide]: the values for the GI50 in the test with OCI-AML3 (N-RasQ61L), in the test on U937 (N-Ras WT) and in the test on Ba/F3 (N-Ras G12D) were 0.2 to 0.7 µM, not below 2 µM and 0.2 to 0.7 µM, respectively. The pIC50 – broadly, the IC50 on a negative log10 scale, so that one unit is a factor of ten – was 7.00 to 7.35 against GCK and 7.35 to 7.52 at ACK1.

Regarding `CCN1CCN(c2ccc(Nc3ncc4c(n3)N(C)C(=O)N(c3cc(NC(=O)c5cccc(C(F)(F)F)c5)ccc3C)C4)cn2)CC1` [Compound 1, N-(3-(7-((6-(4-ethylpiperazin-1-yl)pyridin-3-yl)amino)-1-methyl-2-oxo-1,4-dihydropyrimido[4,5-d]pyrimidin-3-(2H)-yl)-4-methylphenyl)-3-(trifluoromethyl)benzamide], the GI50 in the test with OCI-AML3 (N-RasQ61L) is less than 0.2 µM; with U937 (N-Ras WT), 1.2 to 2 µM; with Ba/F3 (N-Ras G12D), less than 0.2 µM. The pIC50 against GCK and on ACK1 was more than 7.52 throughout.

For `Cc1ccc(NC(=O)c2cccc(C(F)(F)F)c2)cc1N1Cc2cnc(Nc3cnn(C)c3)nc2N(C)C1=O` [Compound 3], the GI50 in the test on OCI-AML3 (N-RasQ61L) was 0.2 to 0.7 µM; with U937 (N-Ras WT), 0.7 to 1.2 µM; in the test with Ba/F3 (N-Ras G12D) it was less than 0.2 µM. In addition, the pIC50 against GCK and at ACK1 was more than 7.52 throughout.

With `CCN1CCN(c2cccc(Nc3ncc4c(n3)N(C)C(=O)N(c3cc(NC(=O)c5cccc(C(F)(F)F)c5)ccc3C)C4)c2)CC1` [Compound 2, N-(3-(7-((3-(4-ethylpiperazin-1-yl)phenyl)amino)-1-methyl-2-oxo-1,4-dihydropyrimido[4,5-d]pyrimidin-3-(2H)-yl)-4-methylphenyl)-3-(trifluoromethyl)benzamide], the GI50 in the test on OCI-AML3 (N-RasQ61L), with U937 (N-Ras WT) and in the test on Ba/F3 (N-Ras G12D) was less than 0.2 µM throughout. Further, the pIC50 at GCK was more than 7.52; at ACK1, 7.00 to 7.35.

Regarding `Cc1ccc(NC(=O)c2cccc(C(F)(F)F)c2)cc1N1Cc2cnc(NC3CC3)nc2N(C)C1=O` [Compound 7, N-(3-(7-(cyclopropylamino)-1-methyl-2-oxo-1,4-dihydropyrimido[4,5-d]pyrimidin-3(2H)-yl)-4-methylphenyl)-3-(trifluoromethyl)benzamide], the GI50 with OCI-AML3 (N-RasQ61L) is 0.2 to 0.7 µM; with U937 (N-Ras WT), not below 2 µM; in the test with Ba/F3 (N-Ras G12D) it was 0.2 to 0.7 µM. Moreover, the pIC50 at GCK and on ACK1 was 7.35 to 7.52 throughout.

For `Cc1ccc(NC(=O)c2cccc(C(F)(F)F)c2)cc1N1Cc2cnc(NC3CCCCC3)nc2N(C)C1=O` [Compound 5, N-(3-(7-(cyclohexylamino)-1-methyl-2-oxo-1,4-dihydropyrimido[4,5-d]pyrimidin-3(2H)-yl)-4-methylphenyl)-3-(trifluoromethyl)benzamide], the results for the GI50 with OCI-AML3 (N-RasQ61L), in the test on U937 (N-Ras WT) and in the test with Ba/F3 (N-Ras G12D) were not below 2 µM, not below 2 µM and 0.2 to 0.7 µM, respectively. Also, the values for the pIC50 at GCK and against ACK1 were not above 6.52 and 7.00 to 7.35, respectively.

For `Cc1ccc(NC(=O)c2cccc(C(F)(F)F)c2)cc1N1Cc2cnc(NCCO)nc2N(C)C1=O` [Compound 6, N-(3-(7-((2-hydroxylethyl)amino)-1-methyl-2-oxo-1,4-dihydropyrimido[4,5-d]pyrimidin-3(2H)-yl)-4-methylphenyl)-3-(trifluoromethyl)benzamide], the GI50 was 0.7 to 1.2 µM with OCI-AML3 (N-RasQ61L), not below 2 µM in the test with U937 (N-Ras WT) and not below 2 µM in the test with Ba/F3 (N-Ras G12D). In addition, the pIC50 on GCK was 7.35 to 7.52; on ACK1 it was more than 7.52.
